Where two headings read alike, the source gives them in different places.
Experiments:
E. coli OGDH E1 = E. coli OGDH E1 (Escherichia coli, UniProt P0AFG3); assay: E. coli OGDH E1 inhibitory activity assay (DCPIP reduction); assay type: biochemical
Procedure: E. coli OGDH E1 was from material donated by R. Frank. E. coli OGDH E1 activity was determined by monitoring DCPIP reduction at 600 nm using a microplate reader (CLARIOstar) and conducted as described[5] with some modifications. […] The reaction buffer (50 mM KH2PO4 and 2 mM MgCl2, pH 7) contained TPP at specified concentrations, 0.5 mM DCPIP, and 6.7 mg/mL E. coli OGDH E1. The reaction mixture was preincubated at 37 °C with the inhibitor for 60 min, and then the reaction was initiated by adding α-ketoglutarate to a final concentration of 10 mM. To determine the IC50, the TPP concentration was set at 60 μM with varying inhibitor concentrations. Specific activity was calculated using the molar extinction coefficient of DCPIP, 21 mM^–1 cm^–1.[28] The IC50 values were calculated from nonlinear regression curve fitting using GraphPad Prism.
Enzyme inhibitory activity assays – methods and results (Figures S1-4) […]
The compound […]
E. coli OGDH E1 inhibitory activity assay. E. coli OGDH E1 was from material donated by R. Frank. E. coli OGDH E1 activity was determined by monitoring DCPIP reduction at 600 nm using a microplate reader (CLARIOstar) and conducted as described3 with some modifications. The percentage inhibition of compounds against E. coli OGDH E1 was assayed at 250 μM. The reaction buffer (50 mM KH 2PO4 and 2 mM MgCl2, pH 7) contained TPP at specified concentrations, 0.5 mM DCPIP, and 6.7 mg/ml E. coli OGDH E1. The reaction mixture was preincubated at 37 °C with the inhibitor for 60 min, then reaction was initiated by adding α-ketoglutarate to a final concentration of 10 mM. To determine the IC50, TPP concentration was set at 60 µM with varying inhibitor concentrations. Specific activity was […]

[1] = PAMPA (parallel artificial membrane permeability assay); assay type: in vitro ADME; details: for Papp at 10 h, 500 µM: PAMPA, read-out: PAMPA log Pe (converted); for Papp at 10 h, 500 µM / Fa (fraction absorbed): compounds at 500 µM, 5% DMSO in PBS pH 7.4, 10 hours, room temperature
Procedure: PAMPA – methods and results (Table S2)
PAMPA was carried out in 96-well microtiter filter plates obtained from Millipore as described1 with some modifications. Each well of the filter plate was impregnated with 15 µL of 5% hexadecane dissolved in hexane (i.e. total amount of hexadecane: 0.75 µL) for at least 10 minutes in ventilated environment to allow for complete evaporation of hexane. Donor compartments were filled with 200 µL compound-containing donor solutions of compounds dissolved in 5% DMSO, phosphate buffered saline PBS) and connected to acceptor plate prefilled with buffer (5% DMSO in PBS, pH 7.4). The resulting sandwich was incubated at room temperature under gentle shaking and wrapped in wet paper towels to avoid evaporation. After 10 hours, the sandwich was disassembled and the solutions in the acceptor and donor were transferred to a disposable UV-transparent plate. UV absorption was measured at wavelengths between 220 and 340 nm using a microplate reader (CLARIOstar).
Compounds were tested at 500 µM. Calibration to determine concentration of compounds were performed with varying compound concentrations in buffer (5% DMSO in PBS).
The artificial membrane permeability is expressed as fraction absorbed (Fa%)2 or log Pe (log of the effective permeability)1. LogD values at pH 7.4 were calculated using MarvinSketch.
Fa% = 100 ∙CA ∙VA / CD0 ∙ VD where: CA = final drug concentration in the acceptor well (µM)
VA = volume in the acceptor well (cm3)
CD0 = Initial drug concentration in the donor well (µM)
VD = volume in the donor well (cm3) log P (cm/s) = log -ln 1-CA/Cequilibrium
S = surface area (cm2), typically 0.268 cm2
Cequilibrium = theoretical equilibrium concentration = [CD ∙VD+CA ∙VA] / [VD+VA] where: CD = final drug concentration in the donor well (µM)
CA = final drug concentration in the acceptor well (µM)
Table S2. Permeability data.
Compounds Fa (%) PAMPA log Pe (cm/s) cLogD (pH = 7.4)

Porcine PDH E1 = target: T1, Porcine PDH E1 (Sus scrofa, UniProt P29804); assay: Porcine PDH E1 inhibitory activity assay (DCPIP reduction); assay type: biochemical; details: for % Inhibition (5:1): [Compound] = 250 μM, [TPP] = 50 μM; for inhibition at 250 µM: [Compound] = [TPP] = 250 μM, read-out: % Inhibition (1:1); for vs TPP: affinity of the compound relative to that of TPP (= [TPP]/IC50) / IC50: [TPP] = 60 µM; for IC50: read-out: IC50 (μM ± SEM); for Ki: calculated from KM(TPP) 0.05 µM using [TPP]/IC50 = KM(TPP)/KI
T1 sequence (P29804 31-390): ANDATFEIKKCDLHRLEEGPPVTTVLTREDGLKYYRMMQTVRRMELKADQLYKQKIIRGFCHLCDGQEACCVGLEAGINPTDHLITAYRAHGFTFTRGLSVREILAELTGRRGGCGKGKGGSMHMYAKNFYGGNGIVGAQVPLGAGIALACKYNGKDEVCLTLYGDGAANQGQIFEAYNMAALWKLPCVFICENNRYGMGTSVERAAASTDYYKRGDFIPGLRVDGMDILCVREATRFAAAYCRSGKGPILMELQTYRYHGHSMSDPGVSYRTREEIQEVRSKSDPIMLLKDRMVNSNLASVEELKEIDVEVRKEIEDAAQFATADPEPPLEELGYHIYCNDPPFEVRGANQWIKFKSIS
Procedure: Porcine PDH E1 was purchased from Sigma. Porcine PDH E1 activity was determined by monitoring 2,6-dichlorophenolindophenol (DCPIP) reduction at 600 nm using a microplate reader (CLARIOstar) and conducted as described[5] with some modifications. […] The reaction buffer (50 mM KH2PO4 and 1 mM MgCl2, pH 7) contained thiamine pyrophosphate (TPP) at specified concentrations, 0.25 mM DCPIP, and 2 mg/mL porcine PDH E1. The reaction mixture was preincubated at 37 °C with the inhibitor for 30 min, and then the reaction was initiated by adding pyruvate to a final concentration of 50 mM. To determine the half-maximal inhibitory concentration (IC50), the TPP concentration was set at 60 μM with varying inhibitor concentrations. Specific activity was calculated using the molar extinction coefficient of DCPIP, 21 mM^–1 cm^–1.[28] The IC50 values were calculated from nonlinear regression curve fitting using GraphPad Prism.
Porcine PDH E1 inhibitory activity assay. Porcine PDH E1 was purchased from Sigma. Porcine PDH E1 activity was determined by monitoring 2,6-dichlorophenolindophenol (DCPIP) reduction at 600 nm using a microplate reader (CLARIOstar) and conducted as described3 with some modifications. The […]
buffer (50 mM KH2PO4 and 1 mM MgCl2, pH 7) contained thiamine pyrophosphate (TPP) at specified concentrations, 0.25 mM 2,6-dichlorophenolindophenol (DCPIP), and 2 mg/mL porcine PDH E1. The reaction mixture was preincubated at 37 °C with the inhibitor for 30 min, then reaction was initiated by adding pyruvate to a final concentration of 50 mM. To determine the half-maximal inhibitory concentration (IC50), TPP concentration was set at 60 µM with varying inhibitor concentrations. […]
values were calculated from non-linear regression curve fitting using GraphPad Prism. […]

[2] = [Compound] = 250 μM, [TPP] = 50 μM
[3] = [Compound] = [TPP] = 250 μM; read-out: % Inhibition (1:1)
[4] = [TPP] = 60 µM; read-out: IC50 (μM ± SEM)
[5] = calculated from KM(TPP) 3 µM using [TPP]/IC50 = KM(TPP)/KI; read-out: KI
[6] = calculated from KM(TPP) 3 µM using [TPP]/IC50 = KM(TPP)/KI
[7] = read-out: IC50 (μM ± SEM); [TPP] = 60 µM

Chain of E. coli OGDH E1 (P0AFG3 whole entry): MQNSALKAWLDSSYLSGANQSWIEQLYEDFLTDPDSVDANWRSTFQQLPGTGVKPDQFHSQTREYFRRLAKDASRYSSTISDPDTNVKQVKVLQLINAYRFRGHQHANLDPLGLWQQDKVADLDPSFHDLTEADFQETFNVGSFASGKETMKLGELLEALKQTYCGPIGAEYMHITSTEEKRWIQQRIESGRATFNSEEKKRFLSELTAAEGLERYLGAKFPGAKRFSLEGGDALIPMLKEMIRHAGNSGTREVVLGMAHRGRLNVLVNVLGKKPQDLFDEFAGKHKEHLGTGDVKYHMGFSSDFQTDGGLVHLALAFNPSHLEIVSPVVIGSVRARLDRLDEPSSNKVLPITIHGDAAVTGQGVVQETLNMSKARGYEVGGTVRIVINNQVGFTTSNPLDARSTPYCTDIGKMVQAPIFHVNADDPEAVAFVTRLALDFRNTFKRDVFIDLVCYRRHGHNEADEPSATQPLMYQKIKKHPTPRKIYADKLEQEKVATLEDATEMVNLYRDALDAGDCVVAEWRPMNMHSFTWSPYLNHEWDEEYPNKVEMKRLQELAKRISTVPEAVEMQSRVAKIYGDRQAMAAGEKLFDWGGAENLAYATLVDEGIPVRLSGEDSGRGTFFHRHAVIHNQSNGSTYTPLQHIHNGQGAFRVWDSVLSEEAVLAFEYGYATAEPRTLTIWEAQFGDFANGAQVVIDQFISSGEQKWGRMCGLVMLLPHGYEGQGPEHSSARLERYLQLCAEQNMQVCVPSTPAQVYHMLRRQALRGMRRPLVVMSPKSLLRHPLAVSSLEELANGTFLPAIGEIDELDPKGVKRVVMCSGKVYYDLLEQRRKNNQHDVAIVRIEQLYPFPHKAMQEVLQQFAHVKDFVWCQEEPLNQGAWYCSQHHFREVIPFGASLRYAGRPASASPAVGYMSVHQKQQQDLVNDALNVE

Compound	% Inhibition (5:1) (E. coli OGDH E1; [2]) [%]	inhibition at 250 µM (E. coli OGDH E1; [3]) [%]	vs TPP: affinity of the compound relative to that of TPP (= [TPP]/IC50) (E. coli OGDH E1; [TPP] = 60 µM)	IC50 (E. coli OGDH E1; [4]) [µM]	Ki (E. coli OGDH E1; [5]) [µM]	membrane permeability in PAMPA (in words) [1]	Papp at 10 h, 500 µM [1] [×10⁻⁶ cm/s]	Fa (fraction absorbed) [1] [%]	% Inhibition (5:1) (Porcine PDH E1) [%]	inhibition at 250 µM (Porcine PDH E1) [%]	vs TPP: affinity of the compound relative to that of TPP (= [TPP]/IC50) (Porcine PDH E1)	IC50 (Porcine PDH E1) [µM]	Ki (Porcine PDH E1) [µM]	Ki (E. coli OGDH E1; [6]) [µM]	IC50 (E. coli OGDH E1; [7]) [µM]
COC(=O)C(CCc1cn(Cc2cnc(C)nc2N)nn1)C(=O)OC [13a]	40 ± 3	< 20	0.15	394 ± 65	20	membrane-permeable	6.31	39	71 ± 3	36 ± 2	0.53	114 ± 15	0.095		
COC(=O)C(CCCc1cn(Cc2cnc(C)nc2N)nn1)C(=O)OC [13b]	54 ± 3	23 ± 4	0.24	251 ± 37	13		6.31	42	81 ± 4	48 ± 3	0.88	68 ± 9	0.057		
Cc1ncc(Cn2cc(CCC(C(=O)[O-])C(=O)[O-])nn2)c(N)n1.[K+].[K+] [14a]	76 ± 5	36 ± 4	0.57			impermeable	0.316	2	> 90	62 ± 3	1.62	37 ± 6	0.031	5.3	105 ± 11
Cc1ncc(Cn2cc(CCCC(C(=O)[O-])C(=O)[O-])nn2)c(N)n1.[K+].[K+] [14b]	83 ± 4	47 ± 3	0.90			membrane-impermeable	0.158	1	> 90	72 ± 3	2.4	25 ± 6	0.021	3.4	67 ± 9
COC(=O)CCCc1cn(Cc2cnc(C)nc2N)nn1 [15a]	38 ± 3	< 20	0.15	407 ± 73	20	membrane-permeable	5.01	38	65 ± 4	25 ± 4	0.36	167 ± 35	0.14		
COC(=O)CCCCc1cn(Cc2cnc(C)nc2N)nn1 [15b]	42 ± 4	< 20	0.17	353 ± 29	18	membrane-permeable	6.31	44	71 ± 4	31 ± 3	0.48	126 ± 28	0.11		
Cc1ncc(Cn2cc(CCCC(=O)[O-])nn2)c(N)n1.[K+] [16a]	49 ± 3	< 20	0.19			impermeable	0.398	3	75 ± 4	34 ± 3	0.54	111 ± 18	0.093	16	316 ± 57
Cc1ncc(Cn2cc(CCCCC(=O)[O-])nn2)c(N)n1.[K+] [16b]	54 ± 4	22 ± 5	0.22			impermeable	0.398	2	77 ± 3	40 ± 3	0.65	92 ± 13	0.077	14	273 ± 44

Source: paper PMC11483378, “Triazole-Based Thiamine Analogues as Inhibitors of Thiamine Pyrophosphate-Dependent Enzymes: 1,3-Dicarboxylate for Metal Binding” (ACS Omega, 2024)
